# Test results: PMC11555678, “Improved Broad Spectrum Antifungal Drug Synergies with Cryptomycin, a Cdc50-Inspired Antifungal Peptide” (ACS Infectious Diseases, 2024)
# Where two headings read alike, the source gives them in different places. Square brackets hold non-standard residues; d marks the D form. Peptide text beside a SMILES is read from it. * marks the point of attachment. Myristoyl = CCCCCCCCCCCCCC(=O)*; Orn = NCCC[C@H](N)C(=O)O
# Columns and labels:
# C. neoformans Crm1^OE = test: microbe, parasite or virus in culture; assay type: cell-based, Cryptococcus neoformans; details: 48 h
# Description: (§1) All microdilution assays with fungi were carried out in accordance with CLSI protocols from M27 for yeasts and M38 for filamentous fungi, respectively, unless otherwise specified.[64],[65] Briefly, 96-well plates were charged with RPMI1640 media, with operating volume in the first column, 200 μL, and half operating volume, 100 μL, in the remaining wells. Drug stock solution in DMSO was aliquoted into the first well in each row. Half of the volume in the dosed well was serially diluted 2-fold until column 11. Column 11 was used as the negative growth control, and column 12 was used as the positive growth control. ON yeast cultures in YPD were washed twice in DD-H2O, resuspended in PBS, and adjusted to 5000 cfu/mL in RPMI. The 96-well plate was inoculated with 100 μL aliquots of cell suspension per well. Plates were incubated at 37 °C for 2 days.
# C. neoformans MRL862 = test: microbe, parasite or virus in culture; assay type: cell-based, Cryptococcus neoformans; details: MRL862, 48 h
# Description: as §1
# C. neoformans apt3Δ = test: microbe, parasite or virus in culture; assay type: cell-based, Cryptococcus neoformans; details: 48 h
# Description: as §1
# C. neoformans apt4Δ = test: microbe, parasite or virus in culture; assay type: cell-based, Cryptococcus neoformans; details: 48 h
# Description: as §1
# C. neoformans crm1Δ = test: microbe, parasite or virus in culture; assay type: cell-based, Cryptococcus neoformans; details: 48 h
# Description: as §1
# C. neoformans apt1Δ = test: microbe, parasite or virus in culture; assay type: cell-based, Cryptococcus neoformans; details: 48 h
# Description: as §1
# C. neoformans H99 [1] = test: microbe, parasite or virus in culture; assay type: cell-based, Cryptococcus neoformans
# Description: as §1
# C. neoformans cdc50Δ = test: microbe, parasite or virus in culture; assay type: cell-based, Cryptococcus neoformans; details: for MIC: 48 h
# Description: as §1
# C. neoformans apt2Δ = test: microbe, parasite or virus in culture; assay type: cell-based, Cryptococcus neoformans; details: 48 h
# Description: as §1
# C. neoformans H99 [2] = assay type: cell-based, Cryptococcus neoformans; details: for MIC of antifungal in combination with (FITC)KKOO / MIC of antifungal in combination with KKOO / MIC of antifungal in combination with KKOO-NH2: RPMI1640, 37 °C; for MIC of antifungal in combination with KKOO / MIC of antifungal in combination with KKOO-NH2: 48 h
# Description: as §1, with “Plates were incubated at 37 °C for 2 days.” left out
# (§2) To assess drug synergy, the initial media charged to the plate contained the peptide at twice the final operating concentration; the remaining processing steps were identical to the MIC experiment. Upon addition of 100 μL of inoculant, the final operating concentration was achieved. Control MIC plates were prepared alongside drug synergy plates to account for the day-to-day variability in any individual MIC. FIC index is computed using eq 1. All MIC assays and drug synergy assays were completed with two technical replicates per 96-well plate and a minimum of two biological replicates per drug combination. If a difference in MIC between the two technical replicates on the plate were observed, only the higher concentration was reported as the MIC to reduce the possibility of type 1 error (false positive) [drawing 1] 1
# A. fumigatus AF293 [3] = test: Drug synergy (MIC in peptide-supplemented media); assay type: cell-based, Aspergillus fumigatus; details: RPMI1640, 37 °C, 48 h, CAS: paradoxical growth; for MIC of antifungal in combination with KKOO: MIC = <20% growth; for MIC of antifungal in combination with KKOO-NH2: MIC = well with <20% growth
# Description: as §1, §2
# C. albicans SC5413 = test: microbe, parasite or virus in culture; assay type: cell-based, Candida albicans
# Description: as §1
# Cg FKS2 S663P = test: Drug synergy (MIC in peptide-supplemented media); assay type: cell-based, Candida glabrata; details: RPMI1640, 37 °C, 48 h
# Description: as §1, §2
# C. auris B11245 = test: microbe, parasite or virus in culture; assay type: cell-based, Candida auris
# Description: as §1
# A. fumigatus AF293 [4] = test: microbe, parasite or virus in culture; assay type: cell-based, Aspergillus fumigatus
# Description: as §1
# C. glabrata 2001 = assay type: cell-based, Candida glabrata; details: RPMI1640, 37 °C, 48 h
# Description: as §1, §2
# Cn MRL862 = assay type: cell-based, Cryptococcus neoformans; details: RPMI1640, 37 °C, 48 h
# Description: as §1, §2
# [5] = compound alone, RPMI1640, 37 °C
# [6] = Table S1, unit and conditions not given (MICs elsewhere in μg/mL)
smiles,measurement,setting,value
"C[C@@H]1[C@H](O)[C@@H](C)/C=C/C=C/C=C/C=C/C=C/C=C/C=C/[C@H](O[C@@H]2O[C@H](C)[C@@H](O)[C@H](N)[C@@H]2O)C[C@@H]2O[C@](O)(C[C@@H](O)C[C@@H](O)[C@H](O)CC[C@@H](O)C[C@@H](O)CC(=O)O[C@H]1C)C[C@H](O)[C@H]2C(=O)O [AMB, amphotericin B]",MIC,C. neoformans Crm1^OE; Cryptococcus neoformans,0.5 µg/mL
same,MIC,C. neoformans MRL862; Cryptococcus neoformans,0.125 µg/mL
same,MIC,C. neoformans apt3Δ; Cryptococcus neoformans,0.5 µg/mL
same,MIC,C. neoformans apt4Δ; Cryptococcus neoformans,0.25 µg/mL
same,MIC,C. neoformans crm1Δ; Cryptococcus neoformans,0.5 µg/mL
same,MIC,C. neoformans apt1Δ; Cryptococcus neoformans,0.5 µg/mL
same,MIC,"C. neoformans H99 [1]; Cryptococcus neoformans, H99, compound alone, RPMI1640, 37 °C, 48 h, read-out: MIC",0.5 µg/mL
same,MIC,C. neoformans cdc50Δ; Cryptococcus neoformans,0.5 µg/mL
same,MIC,C. neoformans apt2Δ; Cryptococcus neoformans,0.25 µg/mL
same,MIC of antifungal in combination with (FITC)KKOO,C. neoformans H99 [2]; +0 μg/mL (FITC)KKOO,0.5 µg/mL
same,MIC of antifungal in combination with KKOO,C. neoformans H99 [2]; +0 μg/mL KKOO (control),0.5 µg/mL
same,MIC of antifungal in combination with KKOO-NH2,C. neoformans H99 [2]; +0 μg/mL KKOO-NH2 (control),0.5 µg/mL
same,MIC of antifungal in combination with KKOO-NH2,C. neoformans H99 [2]; +1 μg/mL KKOO-NH2,0.062 µg/mL
same,MIC of antifungal in combination with KKOO,C. neoformans H99 [2]; +1 μg/mL KKOO,0.25 µg/mL
same,MIC of antifungal in combination with KKOO-NH2,C. neoformans H99 [2]; +2 μg/mL KKOO-NH2,0.062 µg/mL
same,MIC of antifungal in combination with KKOO,C. neoformans H99 [2]; +2 μg/mL KKOO,0.062 µg/mL
same,MIC of antifungal in combination with (FITC)KKOO,C. neoformans H99 [2]; +4 μg/mL (FITC)KKOO,0.125 µg/mL
same,MIC of antifungal in combination with KKOO-NH2,C. neoformans H99 [2]; +4 μg/mL KKOO-NH2,0.031 µg/mL
same,MIC of antifungal in combination with KKOO,C. neoformans H99 [2]; +4 μg/mL KKOO,0.062 µg/mL
same,MIC of antifungal in combination with (FITC)KKOO,C. neoformans H99 [2]; +8 μg/mL (FITC)KKOO,0.062 µg/mL
same,MIC of antifungal in combination with KKOO,C. neoformans H99 [2]; +8 μg/mL KKOO,0.062 µg/mL
same,reduction of MIC of antifungal,"C. neoformans H99 [2]; in the presence of 1 μg/mL KKOO-NH2, 48 h",8 fold
same,reduction of MIC of antifungal,C. neoformans H99 [2]; in the presence of 4 μg/mL (FITC)KKOO,4 fold
same,MIC of antifungal in combination with KKOO,A. fumigatus AF293 [3]; +0 μg/mL KKOO (control),1 µg/mL
same,MIC of antifungal in combination with KKOO-NH2,A. fumigatus AF293 [3]; +0 μg/mL KKOO-NH2 (control),1 µg/mL
same,MIC of antifungal in combination with KKOO-NH2,A. fumigatus AF293 [3]; +1 μg/mL KKOO-NH2,0.5 µg/mL
same,MIC of antifungal in combination with KKOO,A. fumigatus AF293 [3]; +1 μg/mL KKOO,0.25 µg/mL
same,MIC of antifungal in combination with KKOO-NH2,A. fumigatus AF293 [3]; +2 μg/mL KKOO-NH2,0.25 µg/mL
same,MIC of antifungal in combination with KKOO,A. fumigatus AF293 [3]; +2 μg/mL KKOO,0.25 µg/mL
same,MIC of antifungal in combination with KKOO-NH2,A. fumigatus AF293 [3]; +4 μg/mL KKOO-NH2,0.5 µg/mL
same,MIC of antifungal in combination with KKOO,A. fumigatus AF293 [3]; +4 μg/mL KKOO,0.25 µg/mL
same,MIC of antifungal in combination with KKOO-NH2,A. fumigatus AF293 [3]; +8 μg/mL KKOO-NH2,0.5 µg/mL
same,MIC,"C. albicans SC5413; Candida albicans, SC5413, compound alone, RPMI1640, 37 °C, 48 h, read-out: MIC",1 µg/mL
same,MIC of antifungal in combination with KKOO,Cg FKS2 S663P; +0 μg/mL KKOO (control),0.25 µg/mL
same,MIC of antifungal in combination with KKOO-NH2,Cg FKS2 S663P; +0 μg/mL KKOO-NH2 (control),0.25 µg/mL
same,MIC of antifungal in combination with KKOO-NH2,Cg FKS2 S663P; +1 μg/mL KKOO-NH2,0.25 µg/mL
same,MIC of antifungal in combination with KKOO,Cg FKS2 S663P; +1 μg/mL KKOO,0.25 µg/mL
same,MIC of antifungal in combination with KKOO-NH2,Cg FKS2 S663P; +2 μg/mL KKOO-NH2,0.062 µg/mL
same,MIC of antifungal in combination with KKOO,Cg FKS2 S663P; +2 μg/mL KKOO,0.125 µg/mL
same,MIC of antifungal in combination with KKOO-NH2,Cg FKS2 S663P; +4 μg/mL KKOO-NH2,0.016 µg/mL
same,MIC of antifungal in combination with KKOO,Cg FKS2 S663P; +4 μg/mL KKOO,0.031 µg/mL
same,MIC,"C. auris B11245; Candidozyma auris, B11245, compound alone, RPMI1640, 37 °C, 48 h, * = paradoxical growth observed (CAS), read-out: MIC",1 µg/mL
same,MIC,"A. fumigatus AF293 [4]; Aspergillus fumigatus, AF293, compound alone, RPMI1640, 37 °C, 48 h, * = paradoxical growth observed (CAS), read-out: MIC",1 µg/mL
same,MIC of antifungal in combination with KKOO,C. glabrata 2001; +0 μg/mL KKOO (control),1 µg/mL
same,MIC of antifungal in combination with KKOO-NH2,C. glabrata 2001; +0 μg/mL KKOO-NH2 (control),1 µg/mL
same,MIC of antifungal in combination with KKOO-NH2,C. glabrata 2001; +1 μg/mL KKOO-NH2,0.5 µg/mL
same,MIC of antifungal in combination with KKOO,C. glabrata 2001; +1 μg/mL KKOO,0.5 µg/mL
same,MIC of antifungal in combination with KKOO-NH2,C. glabrata 2001; +2 μg/mL KKOO-NH2,0.25 µg/mL
same,MIC of antifungal in combination with KKOO,C. glabrata 2001; +2 μg/mL KKOO,0.25 µg/mL
same,MIC of antifungal in combination with KKOO-NH2,C. glabrata 2001; +4 μg/mL KKOO-NH2,0.25 µg/mL
same,MIC of antifungal in combination with KKOO,C. glabrata 2001; +4 μg/mL KKOO,0.25 µg/mL
same,MIC of antifungal in combination with KKOO,C. glabrata 2001; +8 μg/mL KKOO,0.125 µg/mL
same,MIC of antifungal in combination with KKOO,Cn MRL862; +0 μg/mL KKOO (control),0.25 µg/mL
same,MIC of antifungal in combination with KKOO-NH2,Cn MRL862; +0 μg/mL KKOO-NH2 (control),0.25 µg/mL
same,MIC of antifungal in combination with KKOO-NH2,Cn MRL862; +1 μg/mL KKOO-NH2,0.125 µg/mL
same,MIC of antifungal in combination with KKOO,Cn MRL862; +1 μg/mL KKOO,0.125 µg/mL
same,MIC of antifungal in combination with KKOO-NH2,Cn MRL862; +2 μg/mL KKOO-NH2,0.031 µg/mL
same,MIC of antifungal in combination with KKOO,Cn MRL862; +2 μg/mL KKOO,0.031 µg/mL
same,MIC of antifungal in combination with KKOO-NH2,Cn MRL862; +4 μg/mL KKOO-NH2,0.016 µg/mL
same,MIC of antifungal in combination with KKOO,Cn MRL862; +4 μg/mL KKOO,0.016 µg/mL
CCCCCCCCCCCCCC(=O)N[C@@H](Cc1c[nH]c2ccccc12)C(=O)NCC(=O)NCC(=O)N[C@H](C(=O)N[C@@H](CCCN)C(=O)N[C@@H](CCCN)C(=O)N[C@@H](CC(N)=O)C(=O)N[C@@H](Cc1ccc(O)cc1)C(=O)N[C@@H](C)C(N)=O)[C@@H](C)CC [KKOO-NH2] (Myristoyl-WGGI[Orn][Orn]NYA-NH2),MIC,C. neoformans Crm1^OE; [5],4 µg/mL
same,MIC,C. neoformans MRL862,8 µg/mL
same,MIC,C. neoformans apt3Δ; [5],4 µg/mL
same,MIC,C. neoformans apt4Δ; [5],4 µg/mL
same,MIC,C. neoformans crm1Δ; [5],4 µg/mL
same,MIC,C. neoformans apt1Δ; [5],4 µg/mL
same,MIC,"C. neoformans H99 [1]; H99, 48 h",8 µg/mL
same,MIC (SAR screen peptides),C. neoformans H99 [1]; [6],8
same,MIC (SAR screen peptides),C. neoformans cdc50Δ; [6],4
same,MIC,C. neoformans cdc50Δ; [5],4 µg/mL
same,MIC,C. neoformans apt2Δ; [5],4 µg/mL
same,MIC,"C. albicans SC5413; SC5413, 48 h",16 µg/mL
same,MIC (SAR screen peptides),C. albicans SC5413; [6],16
same,MIC,"C. auris B11245; B11245, 48 h",16 µg/mL
same,MIC,"A. fumigatus AF293 [4]; AF293, 48 h",32 µg/mL
